This is an account of results in patent publication US11993579B1, “3-(1-(3-(dimethylamino)propyl)-4,5-diphenyl-1h-imidazol-2-yl)pyridin-4-ol as an anti-microbial compound” (KING FAISAL UNIVERSITY, priority 2023, dated 2024).

Series [1] relates to Ps. Aeroqonaza. In words: Anti-microbial activity by agar dilution, Ps. Aeroqonaza. The series is classed as cell-based, Ps. aeruginosa. Conditions: after 10, 20, 40, and 60 min at all dilutions 1:100, 1:200, 1:400, 1:800. The method, then:
(§1) The antibacterial properties of the synthesized compounds were studied by the method of agar dilution. Test solutions of each compound was prepared in a concentration of 1% using dimethylformamide as a solvent. Then the test solutions were diluted in a physiological solution to obtain the final experimental dilutions of 1:100, 1:200, 1:400, and 1:800. The effect of these substances was compared with furacillin in a controllable study. The testing microbes used were gram positive bacteria St. Aereus, gram negative bacteria E. Coli, and Ps. aeruginosa and Candida albicans fungi. The experiments used for this survey were a meat-pentonlu agar (EPA) for cultivation of bacteria and a Saburo environment for fungi. Each experiment used 1 mL of test solution on each plate for 500 min. Next, 2 drops of emulsified test solution with microbes feel were added. All experimental samples were taken from the agar after 10, 40, 60 minutes in the environment on the basis of Patrk planted. Bacteria were cultivated at a temperature of 37° C. for 1 day and the mushroom was kept in a thermostat for […] at a temperature of 28° C. Then results were checked.
A general note: In agar dilution the substance is mixed into plates at graded concentrations.

The subject of series [2] is Candida albicans. In words: Anti-microbial activity by agar dilution, Candida albicans. The series is classed as cell-based. Conditions: after 10, 20, 40, and 60 min at all dilutions 1:100, 1:200, 1:400, 1:800. How it is done:
as §1

The subject of series [3] is St. Aereus. Put plainly: Anti-microbial activity by agar dilution, St. Aereus. Conditions: after 10, 20, 40, and 60 min at all dilutions 1:100, 1:200, 1:400, 1:800. The series is classed as cell-based. The method, then: as §1
Series [4] concerns E. Coli. In words: Anti-microbial activity by agar dilution, E. Coli. The series is classed as cell-based. The settings on record: after 10, 20, 40, and 60 min at all dilutions 1:100, 1:200, 1:400, 1:800. How it is done:
as §1

The term melting point denotes the temperature, or range, at which the solid turns liquid. `CN(C)CCCn1c(-c2cnccc2O)nc(-c2ccccc2)c1-c1ccccc1` [3-(1-(3-(dimethylamino)propyl)-4,5-diphenyl-1H-imidazol-2-yl)pyridin-4-ol] returned a melting point of 137 to 139 °C. Besides, the “inhibition activity, Ps. aeruginosa (in words)” value in series [1] is reported as “showed the most inhibition activity”. In addition, the “inhibition activity, Candida albicans (in words)” value in series [2] is given as “showed the most inhibition activity”. Also, in series [3], the “inhibition activity, St. Aereus (in words)” value is reported as “showed the most inhibition activity”. In addition, the “inhibition activity, E. Coli (in words)” value in series [4] was “showed the most inhibition activity”.
